Assay results published in patent US8217000B2, “Method for elevating prolactin in mammals” (Cara Therapeutics, Inc., priority 2006, dated 2012).
Counter-ions that a name gives are not always drawn. Like-named read-outs stand apart in the source and are kept apart here. Non-standard residues stand in square brackets, D forms with d. Residues, ends and D or L forms follow the SMILES beside them. *: point of attachment. NH(4-picolyl) = c1cc(CN*)ccn1; dNle = CCCC[C@@H](N)C(=O)O

Test: Urinary excretion of CR665 after single IV infusion in human subjects
Format: in vivo
Conditions: for CL renal / dose excreted: human; for CL renal: urine and plasma, read-out: CLR 0-24 h; for dose excreted / Ae0-24 h: urine; for dose excreted: iv
Method: The lower limit of quantification was 1 ng/mL.
Urine was collected into standard weight polyethylene containers over the following time intervals: Pre dose (−24 to 0), 0 to 4, 4 to 8, 8 to 12, 12 to 24 and 24 to 48 hours after the start of the infusion. During each collection period, the containers were stored in a refrigerator at 2 to 8° C. The weight (g) of each collection was recorded prior to removal of two sub samples (each approximately 4 mL) into suitably labeled polypropylene containers, which were stored within 2 hours of collection, at approximately −20° C. Additional aliquots (1×100 mL per collection period) were stored for possible future analyses. Any remaining urine from post dose collection intervals was pooled with the rest of the urine collected during the 0 to 24 hour collection period, for analysis of creatinine clearance. A nominal value for specific gravity of 1.018 was used to calculate urine volume.

CCCC[C@@H](NC(=O)[C@@H](Cc1ccccc1)NC(=O)[C@H](N)Cc1ccccc1)C(=O)N[C@H](CCCNC(=N)N)C(=O)NCc1ccncc1 [CR665, D-phenylalanyl-D-phenylalanyl-D-norleucyl-N-(4-pyridinylmethyl)-D-argininamide, acetate salt] (H-[dF][dF][dNle][dR]-{NH(4-picolyl)})
CL renal (female, females, 0.06 mg/kg, 5-minute IV infusion, geometric mean): 20.9 mL/min
CL renal (female, females, 0.24 mg/kg, 1 hour IV infusion, geometric mean): 16.8 mL/min
dose excreted (female, 0.06 mg/kg, females, 0.06 mg/kg, 5-minute IV infusion, geometric mean, read-out: fe0-24 h): 3.83%
dose excreted (female, 0.06 mg/kg, females, 5-minute infusion, read-out: Fraction of unchanged drug excreted in the urine): 3.8%
dose excreted (female, 0.06 mg/kg, females, 5-minute infusion, read-out: fe0-24 h, geometric least squares mean): 3.83%
dose excreted (female, 0.24 mg/kg, females, 0.24 mg/kg, 1 hour IV infusion, geometric mean, read-out: fe0-24 h): 3.02%
dose excreted (female, 0.24 mg/kg, females, 1-hour infusion, read-out: fe0-24 h, geometric least squares mean): 2.7%
fe0-24 h, ratio of geometric least squares means 5-minute:1-hour (females): 1.42
Ae0-24 h (females, 0.06 mg/kg, 5-minute IV infusion, geometric mean): 153 µg
Ae0-24 h (females, 0.24 mg/kg, 1 hour IV infusion, geometric mean): 446 µg
CL renal (male, males, 0.03 mg/kg, 5-minute IV infusion, geometric mean): 17.1 mL/min
CL renal (male, males, 0.06 mg/kg, 5-minute IV infusion, geometric mean): 18.4 mL/min
CL renal (male, males, 0.09 mg/kg, 5-minute IV infusion, geometric mean): 20.5 mL/min
CL renal (male, males, 0.24 mg/kg, 1 hour IV infusion, geometric mean): 22 mL/min
dose excreted (male, 0.03 mg/kg, males, 0.03 mg/kg, 5-minute IV infusion, geometric mean, read-out: fe0-24 h): 3.6%
dose excreted (male, 0.06 mg/kg, males, 0.06 mg/kg, 5-minute IV infusion, geometric mean, read-out: fe0-24 h): 3.33%
dose excreted (male, 0.09 mg/kg, males, 0.09 mg/kg, 5-minute IV infusion, geometric mean, read-out: fe0-24 h): 3.56%
dose excreted (male, 0.24 mg/kg, males, 0.24 mg/kg, 1 hour IV infusion, geometric mean, read-out: fe0-24 h): 3.5%
dose excreted (male, males, 1-hour infusion, Parts A & B, read-out: fe0-24 h, geometric least squares mean): 3.46%
dose excreted (male, males, 5-minute infusion, Parts A & B, read-out: fe0-24 h, geometric least squares mean): 3.48%
dose excreted (male, males, all dose levels, 5-minute infusion, up to 24 hours post-dose, read-out: Fraction of the dose excreted in the urine as unchanged drug): ~3.5%
fe0-24 h, ratio of geometric least squares means 5-minute:1-hour (males): 1.01
Ae0-24 h (males, 0.03 mg/kg, 5-minute IV infusion, geometric mean): 70.0 µg
Ae0-24 h (males, 0.06 mg/kg, 5-minute IV infusion, geometric mean): 157 µg
Ae0-24 h (males, 0.09 mg/kg, 5-minute IV infusion, geometric mean): 262 µg
Ae0-24 h (males, 0.24 mg/kg, 1 hour IV infusion, geometric mean): 631 µg
